Measured values published in patent publication US20230293482A1, “CENTRAL NERVOUS SYSTEM POTENTIATING COMPOSITION” (priority 2020, published 2023).

Legend:
[1] = test system: Wistar male rats; assay: Blood pressure after repeated administration with/without N-acetylcysteine; format: in vivo
Protocol: Wistar male rats were divided into 4 groups, and thereafter, 2-(3,4-dihydroxyphenyl)-3-(D-glucopyranooxyl)chromenylium-3,5,7-triol (1 mg/kg of body weight) and/or N-acetylcysteine (100 mg/kg of body weight) were co-administered to the laboratory animals for 14 days. Thereafter, the blood pressure of the animals was measured over time, using a non-heated type sphygmomanometer.

[2] = test system: Wistar male rats; assay: Neovascularization, CD31 immunostaining of muscle; format: in vivo; details: 1 mg/kg of body weight for 14 days, compared with control group
Protocol: Wistar male rats were divided into 2 groups, and thereafter, a tetramer of 2-(3,4-dihydroxyphenyl)-3-(D-glucopyranooxyl)chromenylium-3,5,7-triol (1 mg/kg of body weight) was co-administered. to the laboratory animals for 14 days, Thereafter, the animals were subjected to dissection. A frozen section was prepared from the excised extensor digitorum longus muscle or soleus muscle, and CD31 serving as a neovascularization marker was then detected by applying an immunostaining method.

[3] = test system: C57BL/6 male mice; assay: Open field locomotor activity / wakening after single administration; format: in vivo; details: 25 μg/kg of body weight, open field 60 minutes; for locomotor activity: compared with control group; for wakening state: control animals repeated sleeping and wakening
[4] = test system: healthy volunteers; assay: Astringency sensory test, solutions held in oral cavity; format: in vivo, human; details: for concentration at which astringency is exhibited in almost all cases: gradually diluted solutions held in oral cavity, ten healthy volunteers; for astringency felt on oral ingestion: compared with other polyphenol compounds
Description: Ten healthy volunteers held in their oral cavity, solutions obtained by gradually diluting (2R,3R)-2-(3,4-dihydroxyphenyl)-3,4-dihydro-2H-chromene-3,5,7-triol, and a dimer, a trimer or a tetramer obtained by condensing the above compound by a 4β→8 bond, 2-(3,4-dihydroxyphenyl)chromenylium-3,5,7-triol or 2-(3,4,5-trihydroxylphenyl)chromenylium-3,5,7-triol, 2-(3,4-hydroxyphenyl-3,5,7-trihydroxy-4H-1-benzopyran-4-one (quercetin), (2R,3R)-5,7-dihydroxy-2-(3,4,5-trihydroxyphenyl)-3,4-dihydro-2H-chromen-3-yl] 3,4,5-trihydroxybenzoate (EGCG), (2S)-5-hydroxy-2-(3-hydroxy-4-methoxyphenyl)-7-[(2S,3R,4S,5S,6R)-3,4,5-trihydroxy-6-[[(2R,3R,4R,5R,6S)-3,4,5- trihydroxy-6-methyloxan-2-yl]oxymethyl]oxan-2-yl]oxy -2,3-dihydrochromen-4-one (hesperidin), 7-hydroxy-3-(4-hydroxyphenyl)chromen-4-one (daidzein), and (1E,6E)-1,7-bis(4-hydroxy-3-methoxyphenyl)hepta-1,6-diene-3,5-dione (curcumin), and the concentrations at which the volunteers felt astringency were then observed.

[5] = test system: Wistar male rats; assay: Blood flow of the cremasteric arteriole, 50% effective dose; format: in vivo; details: 1, 10, 100, 1000 μg/kg of body weight intragastric, 60 minutes after administration, laser Doppler
Protocol: Cannula was inserted into the stomach of Wistar male rats under anesthesia, and the cremaster muscle was prepared, Not only a dimer, a trimer or a tetramer obtained by condensing (2R,3R)-2-(3,4-dihydroxyphenyl)-3,4-dihydro-2H-chromene-3,5,7-triol by a 4β→8 bond, 2-(3,4-dihydroxylphenyl)chromenylium-3,5,7-triol, or 2-(3,4,5-trihydroxyphenyl)chromenylium-3,5,7-triol, but also (2R,3R)-2-(3,4-dihydroxyphenyl)-3,4-dihydro-2H-chromene-3,5,7-triol, 2-(3,4-hydroxyphenyl-3,5,7-trihydroxy-4H-1-benzopyran-4-one (quercetin), (2R,3R)-5,7-dihydroxy-2-(3,4,5-trihydroxyphenyl)-3,4-dihydro-2H-chromen-3-yl] 3,4,5-trihydroxybenzoate (EGCG), (2S)-5-hydroxy-2-(3-hydroxy-4-methoxyphenyl)-7-[(2S,3R,4S,5S,6R)-3,4,5-trihydroxy-6-[[(2R,3R,4R,5R,6S)-3,4,5-trihydroxy-6-methylaxan-2-yl]oxymethyl]oxan-2-yl]oxy-2,3-dihydrochromen-4-one (hesperidin), 7-hydroxy-3(4-hydroxyphenyl)chromen-4-one (daidzein), (1E,6E)-1,7-bis(4-hydroxy-3-methoxyphenyl)hepta-1,6-diene-3,5-dione (curcumin), 5-[(E)-2-(4-hydroxyphenypenyl)ethenyl]-1,3-benzenediol (resveratrol), and (2R,3R)-2-(4-hydroxyphenyl)-3-(3,5-dihydroxyphenyl)-6-[(E)-4-hydroxystyryl]-2,3-dihydrobenzofuran-4-ol (Gnefin C), were administered to the rats at doses of 1, 10, 100, and 1000 μg/kg of body weight. A fluctuation in the blood flow of the cremasteric arteriole 60 minutes after the administration was measured using a laser Doppler blood-flowmeter. […] The 50% effective dose of the compound obtained by condensing (2R,3R)-2-(3,4-dihydroxyphenyl)-3,4-dihydro-2H-chromene-3,5,7-triol by a 4β→8 bond was in the range of 1 to 30 μg/kg of body weight, whereas the 50% effective dose of 2-(3,4-dihydroxyphenyl)chromenylium-3,5,7-triol or 2-(3,4,5-trihydroxylphenyl)chromenylium-3,5,7-triol was in the range of 50 to 100 μg/kg of body weight.

`OC[C@H]1OC(Oc2cc3c(O)cc(O)cc3[o+]c2-c2ccc(O)c(O)c2)[C@H](O)[C@@H](O)[C@@H]1O` (stereo partly drawn) [2-(3,4-dihydroxyphenyl)-3-(D-glucopyranooxyl)chromenylium-3,5,7-triol] was tested, and the “blood pressure change on co-administration with N-acetylcysteine” value ([1]; 1 mg/kg of body weight + N-acetylcysteine 100 mg/kg for 14 days) was “disappeared”, the blood pressure ([1]; 1 mg/kg of body weight for 14 days, Day 7 and Day 14) was “significantly decreased” and the “CD31 expression / neovascularization in extensor digitorum longus or soleus muscle” value [2] was “a significant expression of CD31 was observed”.

`Oc1cc(O)c2c(c1)O[C@H](c1ccc(O)c(O)c1)[C@H](O)[C@H]2c1c(O)cc(O)c2c1O[C@H](c1ccc(O)c(O)c1)[C@H](O)C2` [dimer] was tested, and the locomotor activity [3] was “significantly increased”, the wakening state [3] was “the animals were in a wakening state” and the “concentration at which astringency is exhibited in almost all cases” value (from here on “concentration”) [4] was 10 µg/mL. For the same molecule, the “fluctuation in the blood flow of the cremasteric arteriole” value (shortened to “fluctuation in the blood flow”) [5] was “dose-dependent blood flow-increasing action”.

For `Oc1cc(O)c2cc(O)c(-c3cc(O)c(O)c(O)c3)[o+]c2c1` [2-(3,4,5-trihydroxylphenyl)chromenylium-3,5,7-triol], the “astringency felt on oral ingestion” value [4] was “strong astringency”, the “concentration” value [4] was 10 µg/mL and the “fluctuation in the blood flow” value [5] was “dose-dependent blood flow-increasing action”.

For `Oc1cc(O)c2c(c1)O[C@H](c1ccc(O)c(O)c1)[C@H](O)[C@H]2c1c(O)cc(O)c2c1O[C@H](c1ccc(O)c(O)c1)[C@H](O)[C@H]2c1c(O)cc(O)c2c1O[C@H](c1ccc(O)c(O)c1)[C@H](O)C2` [trimer], the locomotor activity [3] was “significantly increased”, the wakening state [3] was “the animals were in a wakening state” and the “concentration” value [4] was 10 µg/mL. For the same molecule, the “fluctuation in the blood flow” value [5] was “dose-dependent blood flow-increasing action”.

`Oc1cc(O)c2cc(O)c(-c3ccc(O)c(O)c3)[o+]c2c1` [2-(3,4-dihydroxyphenyl)chromenylium-3,5,7-triol] was tested, and the locomotor activity [3] was “significantly increased”, the wakening state [3] was “the animals were in a wakening state” and the “astringency felt on oral ingestion” value [4] was “strong astringency”. The “concentration” value [4] was 10 µg/mL and the “fluctuation in the blood flow” value [5] was “dose-dependent blood flow-increasing action”.
